Tests used:
thrombin = thrombin (Homo sapiens, UniProt P00734); experiment: Sequential inhibition of thrombin by 9a and PPACK; type: biochemical; details: PPACK added following inhibition by 9a (Figure S10)
human α-thrombin = human α-thrombin (Homo sapiens, UniProt P00734); type: biochemical; details: for fold decrease in potency from 9a: ratio of IC50s

| SMILES | thrombin activity after sequential inhibition (thrombin) | fold decrease in potency from 9a (human α-thrombin) [fold] | HS (Hill slope) (human α-thrombin; pH 7.4, 25 °C, Spectrozyme TH) | logIC50 (human α-thrombin; pH 7.4, 25 °C, Spectrozyme TH) |
| --- | --- | --- | --- | --- |
| N=C(N)NCCC[C@H](NC(=O)[C@@H]1CCCN1C(=O)[C@H](N)Cc1ccccc1)C(=O)CCl [PPACK, D-Phe-Pro-Arg-chloromethylketone] | totally inactive | – | – | – |
| CCOC(=O)c1c(C)oc2cc(OC)c(OCc3oc4cc(OC)c(OCc5oc6cc(OC)c(OS(=O)(=O)[O-])cc6c5C(=O)OCCOC)cc4c3C(=O)OCC)cc12.[Na+] [9d] | – | > 500 | – | – |
| CCOC(=O)c1c(C)oc2cc(OC)c(OCc3oc4cc(OC)c(OCc5oc6cc(OCC)c(OS(=O)(=O)[O-])cc6c5C(=O)OCC)cc4c3C(=O)OCC)cc12.[Na+] [9f] | – | 8.6 | 2.3 ± 1.2 | −5.23 ± 0.11 |

Source: publication PMC3717983 (Journal of medicinal chemistry, 2013)
